Test results from EP4759807A1, “PROTEOLYSIS TARGETING CHIMERA COMPOUND FOR DEGRADING IRAK4 AND USE THEREOF” (Shenzhen Zhongge Biological Technology Co., Ltd., priority 2023, dated 2025).

Assays:
[1] = molecular target: T1, IRAK4 (Homo sapiens, UniProt Q9NWZ3); assay: WB detection of proteolysis (Western Blot, THP-1 cells); format: cell-based; details: Western Blot, THP-1 cells, 24 h; for DC50: read-out: DC50; for Dmax: read-out: Dmax
T1 sequence (Q9NWZ3 1-460): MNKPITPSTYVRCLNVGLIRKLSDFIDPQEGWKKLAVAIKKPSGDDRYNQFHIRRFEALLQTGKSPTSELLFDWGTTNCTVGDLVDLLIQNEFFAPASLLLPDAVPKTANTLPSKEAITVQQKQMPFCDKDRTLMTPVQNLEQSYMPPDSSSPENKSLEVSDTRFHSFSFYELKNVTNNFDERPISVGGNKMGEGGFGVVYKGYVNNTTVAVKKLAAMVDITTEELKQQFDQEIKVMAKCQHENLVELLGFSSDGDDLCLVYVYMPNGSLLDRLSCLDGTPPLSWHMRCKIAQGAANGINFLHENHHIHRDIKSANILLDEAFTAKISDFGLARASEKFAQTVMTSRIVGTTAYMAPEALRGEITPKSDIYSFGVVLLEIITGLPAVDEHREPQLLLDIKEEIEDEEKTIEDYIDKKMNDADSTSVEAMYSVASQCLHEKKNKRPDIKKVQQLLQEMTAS
Procedure: The degradation level of IRAK4 in THP-1 cells was detected by Western Blot technology. […] 1000X gradient dilution stock of the compound was prepared, with the highest concentration set at 300 µM. The dilution was carried out using DMSO in a 1:3 dilution factor, yielding a total of 9 concentrations. 1000X gradient dilutions of the compound were added to a 12-well plate, with 1 µL per well. Incubation was performed under conditions of 37°C and 5% CO2 for 24 h, and the cells were collected into 2 mL of centrifuge tubes and centrifuged at 5000 rpm for 5 min, and the supernatant was removed. 100 µL of RIPA lysis buffer (Beyotime, P0013C) was added and mixed uniformly, then the cells were lysed on ice for 10 min, centrifuged at 4°C at 14000 rpm for 10 min, and the supernatant was collected. Protein content was determined with BCA (Solarbio, PC0020-10*50T). 75 µL of the supernatant was taken, and 25 µL of NuPAGE LDS Sample Buffer (4X) (Thermo B0007) was added to each tube (5% β-mercaptoethanol was added before use) to prepare samples, and the samples were boiled in a metal bath at 100°C for 5 min. […] 1x NuPAGE™ MOPS SDS electrophoresis buffer (20X) (Invitrogen, NP0001) was prepared, and the electrophoresis instrument was set to a constant current of 300 mA for 100 min, and the protein was transferred to a PVDF membrane (Millipore, IPVH00010). […] The membrane was washed three times with 1x TBST (Elabscience E-BC-R335) the next day, each time for 5 min. […] The membrane was washed three times with TBST, each time for 5 min. The Odyssey imaging system Li-cor Odyssey CLx was used to detect signals and analyze data. GraphPad (Prism 9.3) software was used to perform analysis for data, and non-linear fitting (non-liner inhibitor (Bell-shaped)) and four parameters (4 parameter) were used, and the parameters was as follows: Span1 = Plateau1−Dip [formula] Span2 = Plateau2−Dip [formula] Section1 = Span1/(1+10^(∧)((LogEC50_1−X)*nH1)) [formula] Section2 = Span2/(1+10^(∧)((X−LogEC50_2)*nH2)) [formula]
The equation was as follows: Y=Dip+Section1+Section2.

[2] = molecular target: T1, IRAK4; assay: Hibit fluorescence detection of proteolysis (IRAK4-HiBiT in HEK293T cells); format: cell-based; set-up: host or cells: HEK293T (ATCC); details: for Dmax: HEK-293T; for DC50: IRAK4-HiBiT, HEK293T cells, 24 h
Method in brief: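 Degradation read-out: luminescence from lytic HiBiT detection (15 min, room temperature) after 24 h compound exposure (37 °C, 5% CO2) of HEK293T cells transiently expressing IRAK4 fused to a HiBiT tag. Data fitted to a bell-shaped four-parameter model giving two EC50 values.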

Compound	DC50 [1] [nM]	Dmax [1] [%]	Dmax [2] [%]	DC50 [2] [nM]	DC50 ([2]; read-out: DC50) [nM]
Cn1c(=O)n(C2CCC(=O)NC2=O)c2cccc(N3CCC(CN4CCC5(CCC(n6cc(-n7cc(-c8cnn9ccc(N[C@@H]%10CCCC[C@@H]%10O)nc89)nn7)c(C(F)F)n6)CC5)CC4)CC3)c21 (stereo partly drawn) [Example 171, 3-(4-(4-((9-(3-(difluoromethyl)-4-(4-(5-(((1R,2S)-2-hydroxycyclohexyl)amino)pyrazolo[1,5-a]pyrimidin-3-yl)-1H-1,2,3-triazol-1-yl)-1H-pyrazol-1-yl]-3-azaspiro[5.5]undecan-3-yl)methyl)piperidin-1-yl)-3-methyl-2-oxo-2,3-dihydro-1H-benzo[d]imidazol-1-yl)piperidine-2,6-dione]	< 10	> 70	–	–	–
C[C@H]1CC2(CCN(c3cccc4c3n(C)c(=O)n4C3CCC(=O)NC3=O)CC2)CN1C[C@H]1CC[C@H](n2cc(-n3cc(-c4cnn5ccc(N6CCC[C@H](O)C6)nc45)nn3)c(C(F)F)n2)CC1 (stereo partly drawn) [Example 295, 3-(4-((S)-2-(((1R,4S)-4-(3-(difluoromethyl)-4-(4-(5-((S)-3-hydroxypiperidin-1-yl)pyrazolo[1,5-a]pyrimidin-3-yl)-1H-1,2,3-triazol-1-yl)-1H-pyrazol-1-yl)cyclohexyl)methyl)-3-methyl-2,8-diazaspiro[4.5]dec-8-yl)-3-methyl-2-oxo-2,3-dihydro-1H-benzo[d]imidazol-1-yl)piperidine-2,6-dione]	> 30	> 70	–	–	–
Cn1c(=O)n(C2CCC(=O)NC2=O)c2cccc(NC(=O)C3CCN(C[C@H]4CC[C@H](n5cc(-n6cc(-c7ccc8cc(C(N)=O)cnn78)nn6)c(C(F)F)n5)CC4)CC3)c21 (stereo partly shown) [Example 69, 7-(1-(3-(difluoromethyl)-1-((1r,4r)-4-((4-((1-(2,6-dioxopiperidin-3-yl)-3-methyl-2-oxo-2,3-dihydro-1H-benzo[d]imidazol-4-yl)carbamoyl)piperidin-1-yl)methyl)cyclohexyl)-1H-pyrazol-4-yl)-1H-1,2,3-triazol-4-yl)pyrrolo[1,2-b]pyridazine-3-carboxamide]	–	–	> 80	> 5	–
Cn1c(=O)n(C2CCC(=O)NC2=O)c2cccc(NC[C@H]3CC[C@H](N(C)C[C@H]4CC[C@H](n5cc(-n6cc(-c7cnn8ccc(N9CCOCC9)nc78)nn6)c(C(F)F)n5)CC4)CC3)c21 (stereo partly drawn) [Example 24, 3-(4-((((1R,4r)-4-((((1r,4R)-4-(3-(difluoromethyl)-4-(4-(5-morpholinopyrazolo[1,5-a]pyrimidin-3-yl)-1H-1,2,3-triazol-1-yl)-1H-pyrazol-1-yl)cyclohexyl)methyl)(methyl)amino)cyclohexyl)methyl)amino)-3-methyl-2-oxo-2,3-dihydro-1H-benzo[d]imidazol-1-yl)piperidine-2,6-dione]	–	–	< 60	< 0.5	–
NC(=O)c1cnn2c(-c3cn(-c4cn(C5CCN(CCN6CCN(c7ccc8c(c7)C(=O)N(C7CCC(=O)NC7=O)C8=O)CC6)CC5)nc4C(F)F)nn3)ccc2c1 (stereo not shown) [Example 93]	–	–	70 to 80	1 to 5	–
Cn1c(=O)n(C2CCC(=O)NC2=O)c2cccc(C3CN(C4CCN(C[C@H]5CC[C@H](n6cc(-n7cc(-c8ccc9cc(C(N)=O)cnn89)nn7)c(C(F)F)n6)CC5)CC4)C3)c21 (stereo partly shown) [Example 82]	–	–	> 80	< 0.5	–
Cn1c(=O)n(C2CCC(=O)NC2=O)c2cccc(N3CCC4(CCN(C[C@H]5CC[C@H](n6cc(-n7cc(-c8cnn9cc(C#N)cnc89)nn7)c(C(F)F)n6)CC5)CC4)C3)c21 (stereo partly shown) [Compound 202]	–	–	< 60	–	0.5 to 1
C[C@H]1CN(c2ccn3ncc(-c4cn(-c5cn([C@H]6CC[C@H](CN7CCC8(CC7)CCN(c7cccc9c7n(C)c(=O)n9C7CCC(=O)NC7=O)C8)CC6)nc5C(F)F)nn4)c3n2)CCO1 (stereo partly shown) [Compound 203]	–	–	> 80	–	< 0.5
CN1CCN(c2ccn3ncc(-c4cn(-c5cn([C@H]6CC[C@H](CN7CCC8(CC7)CCN(c7cccc9c7n(C)c(=O)n9C7CCC(=O)NC7=O)CC8)CC6)nc5C(F)F)nn4)c3n2)CC1 (stereo partly shown) [Compound 233]	–	–	70 to 80	–	0.5 to 1
NC(=O)c1cnn2c(-c3cn(-c4cn(C5CCN(CC6CN(c7ccc8c(c7)C(=O)N(C7CCC(=O)NC7=O)C8=O)C6)CC5)nc4C(F)F)nn3)ccc2c1 (stereo not shown) [Example 75]	–	–	> 80	0.5 to 1	–
NC(=O)c1cnn2c(-c3cn(-c4cn([C@H]5CC[C@H](CN6CC7(CC(CCNc8cccc9c8C(=O)N(C8CCC(=O)NC8=O)C9=O)C7)C6)CC5)nc4C(F)F)nn3)ccc2c1 (stereo partly shown) [Example 76, 7-(1-(3-(difluoromethyl)-1-((1r,4r)-4-((6-(2-((2-(2,6-dioxopiperidin-3-yl)-1,3-dioxoisoindolin-4-yl)amino)ethyl)-2-azaspiro[3.3]hept-2-yl)methyl)cyclohexyl)-1H-pyrazol-4-yl)-1H-1,2,3-triazol-4-yl)pyrrolo[1,2-b]pyridazine-3-carboxamide]	–	–	< 60	< 0.5	–
CN(C[C@H]1CC[C@H](n2cc(-n3cc(-c4cnn5ccc(N6CCOCC6)nc45)nn3)c(C(F)F)n2)CC1)C1CCC(Nc2cccc3c2n(C)c(=O)n3C2CCC(=O)NC2=O)CC1 (stereo partly shown) [Example 20, 3-(4-((4-((((1r,4r)-4-(3-(difluoromethyl)-4-(4-(5-morpholinopyrazolo[1,5-a]pyrimidin-3-yl)-1H-1,2,3-triazol-1-yl)-1H-pyrazol-1-yl)cyclohexyl)methyl)(methyl)amino)cyclohexyl)amino)-3-methyl-2-oxo-2,3-dihydro-1H-benzo[d]imidazol-1-yl)piperidine-2,6-dione]	–	–	> 80	< 0.5	–
NC(=O)c1cnn2c(-c3cn(-c4cn(C5CCN(CC6CCC7(CC6)CCN(C(=O)c6ccc(Cl)c(N8CCC(=O)NC8=O)c6)CC7)CC5)nc4C(F)F)nn3)ccc2c1 [Example 77]	–	–	70 to 80	0.5 to 1	–
Cn1c(=O)n(C2CCC(=O)NC2=O)c2cccc(N3CC4CN(C[C@H]5CC[C@H](n6cc(-n7cc(-c8ccc9cc(C(N)=O)cnn89)nn7)c(C(F)F)n6)CC5)CC4C3)c21 (stereo partly shown) [Example 81]	–	–	> 80	< 0.5	–
Cn1c(=O)n(C2CCC(=O)NC2=O)c2cccc(N3CCC4(CC3)CN(C[C@H]3CC[C@H](n5cc(-n6cc(-c7ccc8cc(C(N)=O)cnn78)nn6)c(C(F)F)n5)CC3)CCO4)c21 (stereo partly shown) [Example 89, 7-(1-(3-(difluoromethyl)-1-((1r,4r)-4-((9-(1-(2,6-dioxopiperidin-3-yl)-3-methyl-2-oxo-2,3-dihydro-1H-benzo[d]imidazol-4-yl)-1-oxa-4,9-diazaspiro[5.5]undecan-4-yl)methyl)cyclohexyl)-1H-pyrazol-4-yl)-1H-1,2,3-triazol-4-yl)pyrrolo[1,2-b]pyridazine-3-carboxamide]	–	–	> 80	0.5 to 1	–
Cl.Cn1c(=O)n(C2CCC(=O)NC2=O)c2cccc(N3CCN(C4CCN(C[C@H]5CC[C@H](n6cc(-n7cc(-c8cnn9ccc(N%10CCNCC%10)nc89)nn7)c(C(F)F)n6)CC5)CC4)CC3)c21 (stereo partly shown) [Example 131, 3-(4-(4-(1-(1r,4r)-4-(3-difluoromethyl)-4-(4-(5-(piperazin-1-yl)pyrazolo[1,5-a]pyrimidin-3-yl)-1H-1,2,3-triazol-1-yl)-1H-pyrazol-1-yl)cyclohexyl)methyl)piperidin-4-yl)piperazin-1-yl)-3-methyl-2-oxo-2,3-dihydro-1H-benzoimidazol-1-yl)piperidine-2,6-dione hydrochloride]	–	–	–	–	0.5 to 1
